This note sets out measurements from patent publication US20190060296A1, “DISCOVERY OF SMALL MOLECULES THAT TARGET THE ANDROGEN RECEPTOR AND USES” (Massachusetts Institute of Technology, priority 2017, published 2019).

pIC50: −log10 of the molar value. A value given as a limit tells only on which side of the number the result lay.

A word on the pIC50: it is −log10 of the IC50, conventionally taken in molar units. Low values mean a high IC50, high ones a low IC50.

The experiment deals with T1, AR-v7 (Homo sapiens, UniProt P10275).
T1 construct: expressed in transfected cells
T1 sequence (P10275 1-644 isoform P10275-3): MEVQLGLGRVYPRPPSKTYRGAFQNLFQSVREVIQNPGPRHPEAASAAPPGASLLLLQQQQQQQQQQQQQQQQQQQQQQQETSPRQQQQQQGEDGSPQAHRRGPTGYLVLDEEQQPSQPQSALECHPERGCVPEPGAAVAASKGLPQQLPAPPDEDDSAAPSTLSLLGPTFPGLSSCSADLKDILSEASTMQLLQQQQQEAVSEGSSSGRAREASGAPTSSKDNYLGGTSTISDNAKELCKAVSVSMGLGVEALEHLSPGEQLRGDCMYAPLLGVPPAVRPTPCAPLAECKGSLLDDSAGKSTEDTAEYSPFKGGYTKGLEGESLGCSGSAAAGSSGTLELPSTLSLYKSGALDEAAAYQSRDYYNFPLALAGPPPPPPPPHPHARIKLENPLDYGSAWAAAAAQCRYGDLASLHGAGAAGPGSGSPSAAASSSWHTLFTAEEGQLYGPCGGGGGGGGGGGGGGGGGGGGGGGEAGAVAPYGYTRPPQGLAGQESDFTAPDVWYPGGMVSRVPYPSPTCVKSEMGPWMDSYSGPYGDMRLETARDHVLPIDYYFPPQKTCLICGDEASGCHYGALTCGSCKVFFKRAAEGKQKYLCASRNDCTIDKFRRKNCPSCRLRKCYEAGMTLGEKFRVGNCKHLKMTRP
The experiment is described as follows: dual luciferase reporter assay, stable LNCaP cell line with AR-v7 under DOX control and MMTV-driven firefly luciferase. It counts as cell-based. To be noted: Reporter Assay at 24 hours; dose response starting at 50 μM, serially diluted 1:1; LNCaP cells. From the text:
CMV-driven Renilla luciferase is also included as a control. The relative luciferase activity is the firefly luciferase activity normalized to the Renilla luciferase activity. A “dual-reporter assay” is conceptually similar to the single reporter assay described above, and can correct for experimental variation (e.g., cell number, transfection efficiency, etc.). In the case of a dual-reporter assay, a “reporter system” is used, where cells are transfected with two plasmids, the first plasmid comprising the regulatory gene of interest and a first reporter, and the second plasmid comprising a constitutive promoter and a second reporter, wherein the second reporter and the first reporter have biologically distinct activities. The ratio of the first reporter activity (e.g., controlled by the regulatory gene of interest) relative to the second reporter activity (e.g., controlled by the constitutive promoter) corrects for experimental variation. […] In certain embodiments, one or more compounds selected from the SMM screen are submitted to a screen comprising a dual-luciferase assay, the dual-luciferase assay further comprising (i) a first vector comprising a first promoter and a first reporter and (ii) a second vector comprising a second promoter and a second reporter. In certain embodiments, the first vector comprises a first promoter and a first reporter, wherein the first promoter is the MMTV promoter and the first reporter is firefly luciferase. Activation of the androgen receptor, or variant thereof, will promote increased expression of the MMTV-driven firefly luciferase. In certain embodiments, the second vector comprises a second promoter and a second reporter, wherein the second promoter is the cytomegalovirus (CMV) promoter and the second reporter is Renilla luciferase. The CMV promoter is constitutively activated, leading to a basal expression level of Renilla luciferase that serves as a control and can be used to normalize the MMTV-driven firefly luciferase expression level. […] In an embodiment, the first luciferase is firefly luciferase. In an embodiment, the second luciferase is Renilla luciferase. […] In certain embodiments, the firefly luciferase is under control of an MMTV promoter that contains one or more androgen response element (ARE). […] In total, 50,000 molecules were screened against the androgen receptor variant AR-v7 (exons 1-3 truncate of AR-FL) using a small molecule microarray (SMM) (see FIG. 1). […] PSA was used as a readout for both AR-v7 and AR activity in the qPCR assay in LNCaP cells. Selected SMM assay positives were administered to cells at two doses (10 and 30 μM) and PSA expression was evaluated using the Single Shot qPCR kit (BioRad) (see FIG. 2).
(Reporter assays use an easily measured gene product as a stand-in for the process of interest.)
Compound `O=C(NCC[C@@H]1C[C@@H]2C=C[C@H]1C2)c1cccc(OC2CCN(C(=O)C3CC3)CC2)c1` (relative stereo) [KI-ARv-01, N-{2-[(1S*,2S*,4S*)-bicyclo[2.2.1]hept-5-en-2-yl]ethyl}-3-{[1-(cyclopropylcarbonyl)-4-piperidinyl]oxy}benzamide] showed a pIC50 of 5.27.
As for `Fc1ccc(N2CCCN(CC3[C@H]4CNC[C@@H]34)CC2)cc1` (relative stereo) [KI-ARv-04, (1R*,5S*,6r)-6-{[4-(4-fluorophenyl)-1,4-diazepan-1-yl]methyl}-3-azabicyclo[3.1.0]hexane], the figure is 4.95.
With `CS(=O)(=O)N1CCC(Oc2cccc(C(=O)NCC[C@@H]3C[C@@H]4C=C[C@H]3C4)c2)CC1` (relative stereo) [KI-ARv-08, N-{2-[(1S*,2S*,4S*)-bicyclo[2.2.1]hept-5-en-2-yl]ethyl}-3-{[1-(methylsulfonyl)-4-piperidinyl]oxy}benzamide] the figure was 4.61.
As for `COc1ccc(N2CCN(C(=O)c3sc4ncnc(NC[C@H]5C[C@@H]6C=C[C@H]5C6)c4c3C)CC2)cc1` (relative stereo) [KI-ARv-09, N-[(1R*,2S*,4R*)-bicyclo[2.2.1]hept-5-en-2-ylmethyl]-6-{[4-(4-methoxyphenyl)-1-piperazinyl]carbonyl}-5-methylthieno[2,3-d]pyrimidin-4-amine], the figure is under 4.30.
`Cc1c(C(=O)NCc2ccncc2)sc2ncnc(NC[C@H]3C[C@@H]4C=C[C@H]3C4)c12` (relative stereo) [RO3682, 4-{[(1R*,2S*,4R*)-bicyclo[2.2.1]hept-5-en-2-ylmethyl]amino}-5-methyl-N-(4-pyridinylmethyl)thieno[2,3-d]pyrimidine-6-carboxamide]: the pIC50 was 4.90.
As for `Cc1c(C(=O)N(C)Cc2cccc3ncccc23)sc2ncnc(NCC3C[C@@H]4C=C[C@H]3C4)c12` (stereo partly drawn) [KI-ARv-02, 4-((((1R,4R)-bicyclo[2.2.1]hept-5-en-2-yl)methyl)amino)-N,5-dimethyl-N-(quinolin-5-ylmethyl)thieno[2,3-d]pyrimidine-6-carboxamide], the figure is 5.16.
`CCNc1ncc(-c2cc(-c3cc(C)sc3C)nc(N)c2C#N)cn1` [KI-ARv-05, 2-amino-6-(2,5-dimethyl-3-thienyl)-4-[2-(ethylamino)pyrimidin-5-yl]nicotinonitrile]: the pIC50 is 4.30.
`Cc1cc(N2CCC(NCc3cccc(N4CCCC4)c3)CC2)nc(N)n1` [KI-ARv-06, 4-methyl-6-{4-[(3-pyrrolidin-1-ylbenzyl)amino]piperidin-1-yl}pyrimidin-2-amine] gave a pIC50 of 4.83.
